Measured values published in EP2998292A1, “Naphthyl sulfonamide derivatives as KEAP-1 modulators for the treatment of diabetes, obesity, dyslipidemia and related disorders” (SANOFI, priority 2014, dated 2016).

Target: T1, human Keap1 kelch domain (amino acids Ala321-Thr609) (Homo sapiens, UniProt Q14145)
T1 construct: human Keap1 kelch domain (amino acids Ala321-Thr609)
Assay: Keap1-Nrf2 peptide binding assay (fluorescence polarisation)
Conditions: binding of Keap1 kelch domain (20 nM) to fluorescently labeled Nrf2 peptide Alexa633-AFFAQLQLDEETGEFL (50 nM); ambient temperature
Method: Keap1-Nrf2 peptide binding assay
A fluorescence polarisation assay was used to measure binding of the human Keap1 kelch domain (amino acids Ala321-Thr609) to a fluorescently labeled peptide containing a Keap1 binding site of human Nrf2 (Alexa633-AFFAQLQLDEETGEFL; JPT Technologies, Berlin, Germany). Two microliters of test compound in reaction buffer (phosphate-buffered saline, 2 mM DL-dithiothreitol, 0.015 % (v/v) Brij-35) containing 6 % (v/v) DMSO were mixed with two microliters of the Keap1 kelch domain in reaction buffer in a black 384-well small volume microtiter plate and incubated at ambient temperature for 15 minutes. Thereafter, two microliters were added of the fluorescently labeled Nrf2 peptide in reaction buffer, and the mixture was incubated for a further 30 minutes at ambient temperature. Final concentrations of the Keap1 kelch domain and the fluorescently labeled Nrf2 peptide were 20 nM and 50 nM, respectively. Fluorescence polarization (FP) was measured at excitation and emission wavelengths of 635 nm and 660 nm, respectively. Positive controls for binding (two microliters of reaction buffer containing 6 % (v/v) DMSO instead of test compound in the same buffer) and negative controls (as positive controls, but without Keap1 kelch domain) were included on each microtiter plate. Data were expressed as percent-inhibition values: percent inhibition = 100⋅(1-(|FPcompound-FPnegative control|)/(|FPpositive control-FPnegative control|)) [formula]
IC50 values were determined by testing different compound concentrations and fitting the resulting percent-inhibition values to the following equation using XLFit4: percent inhibition = A + (B-A)/(1 + (((IC50)/([Compound])))^D) [formula]
Parameter A was set to zero, pre-fit values for parameters B and D were set to 100 and 1, respectively.

T1 sequence (Q14145 321-609): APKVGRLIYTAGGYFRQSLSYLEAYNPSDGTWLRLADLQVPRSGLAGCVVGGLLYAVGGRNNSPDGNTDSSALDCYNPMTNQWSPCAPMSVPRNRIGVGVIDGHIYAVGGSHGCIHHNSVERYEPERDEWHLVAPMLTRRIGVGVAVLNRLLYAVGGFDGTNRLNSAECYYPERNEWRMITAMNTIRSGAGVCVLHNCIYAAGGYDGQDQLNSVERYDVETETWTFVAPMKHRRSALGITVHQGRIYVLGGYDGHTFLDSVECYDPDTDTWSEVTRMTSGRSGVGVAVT

Row | Molecule | IC50 [µM]
1 | 1-[4-[(5-chloro-1,3-dimethyl-pyrazol-4-yl)sulfonylamino]-2-naphthyl]piperidine-3-carboxylic acid; 2,2,2-trifluoroacetic acid [Example 11] | 26.7
2 | CCCCCC(CC(=O)O)c1cc(NS(=O)(=O)c2c(C)c(C)cc(C)c2C)c2ccccc2c1 (stereo not shown) [Example 1, 3-[4-[(2,3,5,6-tetramethylphenyl)sulfonylamino]-2-naphthyl]octanoic acid] | 13
3 | Cc1cc(C)c(C)c(S(=O)(=O)Nc2cc(C3CCCC3C(=O)O)cc3ccccc23)c1C (stereo not shown) [Example 3, 2-[4-[(2,3,5,6-tetramethylphenyl)sulfonylamino]-2-naphthyl]cyclopentaneca rboxylic acid] | 5.2
4 | Cc1cc(C)c(C)c(S(=O)(=O)Nc2cc(C(CC(=O)O)c3ccccc3)cc3ccccc23)c1C (stereo not shown) [Example 4, 3-phenyl-3-[4-[(2,3,5,6-tetramethylphenyl)sulfonylamino]-2-naphthyl]propanoic acid] | 14.4
5 | CCCCCC(Oc1cc(NS(=O)(=O)c2c(C)c(C)cc(C)c2C)c2ccccc2c1)C(=O)O (stereo not shown) [Example 5, 2-[[4-[(2,3,5,6-tetramethylphenyl)sulfonylamino]-2-naphthyl]oxy]heptanoic acid] | 3.3
6 | Cc1cc(C)c(C)c(S(=O)(=O)Nc2cc(C3=CCC(C(=O)O)CC3)cc3ccccc23)c1C (stereo not shown) [Example 9, 4-[4-[(2,3,5,6-tetramethylphenyl)sulfonylamino]-2-naphthyl]cyclohex-3-ene-1-carboxylic acid] | 2.9
7 | Cc1cc(C)c(C)c(S(=O)(=O)Nc2cc(CC(C(=O)O)C(F)(F)F)cc3ccccc23)c1C (stereo not shown) [Example 10, 3,3,3-trifluoro-2-[[4-[(2,3,5,6-tetramethylphenyl)sulfonylamino]-2-naphthyl]methyl]propanoi c acid] | 15.7
8 | Cc1cc(C)c(C)c(S(=O)(=O)Nc2cc(N3CCCC(C(=O)O)C3)cc3ccccc23)c1C (stereo not shown) [Example 12, 1-[4-[(2,3,5,6-tetramethylphenyl)sulfonylamino]-2-naphthyl]piperidine-3-carboxylic acid; 2,2,2-trifluoroacetic acid] | 8.6
9 | Cc1cc(C)c(C)c(S(=O)(=O)Nc2ccc(C(CC(=O)O)c3ccccc3)c3ccccc23)c1C (stereo not shown) [Example 13, 3-phenyl-3-[4-[(2,3,5,6-tetramethylphenyl)sulfonylamino]-1-naphthyl]propanoic acid] | 6.5
10 | Cc1cc(C)c(C)c(S(=O)(=O)Nc2ccc(CC(C(=O)O)c3cccc(C(F)(F)F)c3)c3ccccc23)c1C (stereo not shown) [Example 14, 3-[4-[(2,3,5,6-tetra-methylphenyl)sulfonylamino]-1-naphthyl]-2-[3-(trifluoromethyl)phenyl]pr opanoic acid] | 4
